In PubChem BioAssay AID1259407 (Chemical Carcinogenesis Research Information System (CCRIS), 2018):
Calls of active or inactive are those of the source. The rule behind the calls is not given here.

Test system: CCRIS mutagenicity, Ames/micronucleus/aberration tests
Test: CCRIS mutagenicity studies
[1] = Test System: AMES SALMONELLA TYPHIMURIUM, Strain/Indicator: TA98, Metabolic Activation: NONE, Method: STANDARD PLATE
[2] = Test System: AMES SALMONELLA TYPHIMURIUM, Strain/Indicator: TA98, Metabolic Activation: RAT, LIVER, S-9, AROCLOR 1254, Method: STANDARD PLATE
[3] = Test System: AMES SALMONELLA TYPHIMURIUM, Strain/Indicator: TA100, Metabolic Activation: NONE, Method: STANDARD PLATE
[4] = Test System: AMES SALMONELLA TYPHIMURIUM, Strain/Indicator: TA100, Metabolic Activation: RAT, LIVER, S-9, AROCLOR 1254, Method: STANDARD PLATE
[5] = Test System: AMES SALMONELLA TYPHIMURIUM, Strain/Indicator: TA1535, Metabolic Activation: NONE, Method: STANDARD PLATE
[6] = Test System: AMES SALMONELLA TYPHIMURIUM, Strain/Indicator: TA1537, Metabolic Activation: NONE, Method: STANDARD PLATE
[7] = Test System: AMES SALMONELLA TYPHIMURIUM, Strain/Indicator: TA1538, Metabolic Activation: NONE, Method: STANDARD PLATE

Measured: mutagenic call

CC(=O)Nc1ccc2ccc3cccc4ccc1c2c34
inactive: Test System: AMES SALMONELLA TYPHIMURIUM, Strain/Indicator: TA98(1,8-DNP6), Metabolic Activation: NONE, Method: STANDARD PLATE inactive; negative | Test System: AMES SALMONELLA TYPHIMURIUM, Strain/Indicator: TA98(1,8-DNP6), Metabolic Activation: RAT, LIVER, S-9, AROCLOR 1254, Method: STANDARD PLATE inactive; negative | Test System: AMES SALMONELLA TYPHIMURIUM, Strain/Indicator: TA98(NR), Metabolic Activation: NONE, Method: STANDARD PLATE inactive; negative | [1] inactive; negative
active: Test System: AMES SALMONELLA TYPHIMURIUM, Strain/Indicator: TA98(NR), Metabolic Activation: RAT, LIVER, S-9, AROCLOR 1254, Method: STANDARD PLATE active; positive | [2] active; positive

c1ccc2cc3c(cc2c1)c1c(c2ccccc23)O1
active: [3] active; positive

c1cnc2c(c1)[C@@H]1O[C@@H]1C1OC21 (some centres not stated)
inactive: [3] inactive; negative | Test System: AMES SALMONELLA TYPHIMURIUM, Strain/Indicator: TA100, Metabolic Activation: RAT, LIVER, S-9, AROCLOR 1254 (10% OR 20%), Method: STANDARD PLATE inactive; negative

CCCCOCC(=O)O
inactive: Test System: AMES SALMONELLA TYPHIMURIUM, Strain/Indicator: TA97A, Metabolic Activation: NONE, Method: STANDARD PLATE inactive; negative | Test System: AMES SALMONELLA TYPHIMURIUM, Strain/Indicator: TA97A, Metabolic Activation: RAT, LIVER, S-9, AROCLOR 1254, Method: STANDARD PLATE inactive; negative | [1] inactive; negative | [2] inactive; negative | [3] inactive; negative | [4] inactive; negative | Test System: AMES SALMONELLA TYPHIMURIUM, Strain/Indicator: TA102, Metabolic Activation: NONE, Method: STANDARD PLATE inactive; negative | Test System: AMES SALMONELLA TYPHIMURIUM, Strain/Indicator: TA102, Metabolic Activation: RAT, LIVER, S-9, AROCLOR 1254, Method: STANDARD PLATE inactive; negative

CC(C)(C#N)C(C)(C)C#N
inactive: Test System: AMES SALMONELLA TYPHIMURIUM, Strain/Indicator: TA97, Metabolic Activation: HAMSTER, LIVER, S-9, AROCLOR 1254 (10 OR 30%), Method: PREINCUBATION inactive; negative | Test System: AMES SALMONELLA TYPHIMURIUM, Strain/Indicator: TA97, Metabolic Activation: NONE, Method: PREINCUBATION inactive; negative | Test System: AMES SALMONELLA TYPHIMURIUM, Strain/Indicator: TA97, Metabolic Activation: RAT, LIVER, S-9, AROCLOR 1254 (10 OR 30%), Method: PREINCUBATION inactive; negative | Test System: AMES SALMONELLA TYPHIMURIUM, Strain/Indicator: TA97, Method: PREINCUBATION inactive; negative | Test System: AMES SALMONELLA TYPHIMURIUM, Strain/Indicator: TA98, Metabolic Activation: HAMSTER, LIVER, S-9, AROCLOR 1254 (10 OR 30%), Method: PREINCUBATION inactive; negative | Test System: AMES SALMONELLA TYPHIMURIUM, Strain/Indicator: TA98, Metabolic Activation: HAMSTER, LIVER, S-9, AROCLOR 1254, Method: STANDARD PLATE inactive; negative | Test System: AMES SALMONELLA TYPHIMURIUM, Strain/Indicator: TA98, Metabolic Activation: NONE, Method: PREINCUBATION inactive; negative | [1] inactive; negative | Test System: AMES SALMONELLA TYPHIMURIUM, Strain/Indicator: TA98, Metabolic Activation: RAT, LIVER, S-9, AROCLOR 1254 (10 OR 30%), Method: PREINCUBATION inactive; negative | [2] inactive; negative | Test System: AMES SALMONELLA TYPHIMURIUM, Strain/Indicator: TA98, Method: PREINCUBATION inactive; negative | Test System: AMES SALMONELLA TYPHIMURIUM, Strain/Indicator: TA100, Metabolic Activation: HAMSTER, LIVER, S-9, AROCLOR 1254 (10 OR 30%), Method: PREINCUBATION inactive; negative | Test System: AMES SALMONELLA TYPHIMURIUM, Strain/Indicator: TA100, Metabolic Activation: HAMSTER, LIVER, S-9, AROCLOR 1254, Method: STANDARD PLATE inactive; negative | Test System: AMES SALMONELLA TYPHIMURIUM, Strain/Indicator: TA100, Metabolic Activation: NONE, Method: PREINCUBATION inactive; negative | [3] inactive; negative | Test System: AMES SALMONELLA TYPHIMURIUM, Strain/Indicator: TA100, Metabolic Activation: RAT, LIVER, S-9, AROCLOR 1254 (10 OR 30%), Method: PREINCUBATION inactive; negative | [4] inactive; negative | Test System: AMES SALMONELLA TYPHIMURIUM, Strain/Indicator: TA100, Method: PREINCUBATION inactive; negative | Test System: AMES SALMONELLA TYPHIMURIUM, Strain/Indicator: TA102, Metabolic Activation: NONE, Method: PREINCUBATION inactive; negative | Test System: AMES SALMONELLA TYPHIMURIUM, Strain/Indicator: TA102, Method: PREINCUBATION inactive; negative | Test System: AMES SALMONELLA TYPHIMURIUM, Strain/Indicator: TA1535, Metabolic Activation: HAMSTER, LIVER, S-9, AROCLOR 1254 (10 OR 30%), Method: PREINCUBATION inactive; negative | Test System: AMES SALMONELLA TYPHIMURIUM, Strain/Indicator: TA1535, Metabolic Activation: HAMSTER, LIVER, S-9, AROCLOR 1254, Method: STANDARD PLATE inactive; negative | Test System: AMES SALMONELLA TYPHIMURIUM, Strain/Indicator: TA1535, Metabolic Activation: NONE, Method: PREINCUBATION inactive; negative | [5] inactive; negative | Test System: AMES SALMONELLA TYPHIMURIUM, Strain/Indicator: TA1535, Metabolic Activation: RAT, LIVER, S-9, AROCLOR 1254 (10 OR 30%), Method: PREINCUBATION inactive; negative | Test System: AMES SALMONELLA TYPHIMURIUM, Strain/Indicator: TA1535, Metabolic Activation: RAT, LIVER, S-9, AROCLOR 1254, Method: STANDARD PLATE inactive; negative | [6] inactive; negative | Test System: AMES SALMONELLA TYPHIMURIUM, Strain/Indicator: TA1537, Metabolic Activation: RAT, LIVER, S-9, AROCLOR 1254, Method: STANDARD PLATE inactive; negative | Test System: AMES SALMONELLA TYPHIMURIUM, Strain/Indicator: TA1538, Metabolic Activation: HAMSTER, LIVER, S-9, AROCLOR 1254, Method: STANDARD PLATE inactive; negative | [7] inactive; negative | Test System: AMES SALMONELLA TYPHIMURIUM, Strain/Indicator: TA1538, Metabolic Activation: RAT, LIVER, S-9, AROCLOR 1254, Method: STANDARD PLATE inactive; negative | Test System: MOUSE LYMPHOMA, Strain/Indicator: L5178Y (TK+/TK-), Metabolic Activation: NONE, Method: SUSPENSION/PLATE inactive; negative. reevaluation of results: negative | Test System: MOUSE LYMPHOMA, Strain/Indicator: L5178Y (TK+/TK-), Metabolic Activation: RAT, LIVER, S-9, AROCLOR 1254, Method: SUSPENSION/PLATE inactive; negative. reevaluation of results: negative

Cc1cccn2c(=O)c(-c3nnn[nH]3)cnc12
inactive: [1] inactive; negative | Test System: AMES SALMONELLA TYPHIMURIUM, Strain/Indicator: TA98, Metabolic Activation: S-9, Method: STANDARD PLATE inactive; negative | [3] inactive; negative | Test System: AMES SALMONELLA TYPHIMURIUM, Strain/Indicator: TA100, Metabolic Activation: S-9, Method: STANDARD PLATE inactive; negative | [5] inactive; negative | Test System: AMES SALMONELLA TYPHIMURIUM, Strain/Indicator: TA1535, Metabolic Activation: S-9, Method: STANDARD PLATE inactive; negative | [6] inactive; negative | Test System: AMES SALMONELLA TYPHIMURIUM, Strain/Indicator: TA1537, Metabolic Activation: S-9, Method: STANDARD PLATE inactive; negative | [7] inactive; negative | Test System: AMES SALMONELLA TYPHIMURIUM, Strain/Indicator: TA1538, Metabolic Activation: S-9, Method: STANDARD PLATE inactive; negative | Test System: E. COLI, Strain/Indicator: WP2 UVRA, Metabolic Activation: NONE, Method: STANDARD PLATE inactive; negative | Test System: E. COLI, Strain/Indicator: WP2 UVRA, Metabolic Activation: S-9, Method: STANDARD PLATE inactive; negative
